Data on one molecule can be found in patent publication US20140286868A1, “IMMORTALIZED HUMAN PROSTATE CELL LINES” (Tuskegee University, priority 2011, published 2014).

One experiment concerns RC-77T/E cells. The experiment can be described thus: Androgen sensitivity: cell proliferation by MTT assay, RC-77T/E cells. The class given is cell-based, human. Particulars: 4 days. As for the experimental part:
(§1) Since androgen receptor expression was observed both cell lines, an experiment was conducted to determine the effects of androgen stimulation on the growth of RC-77N/E and RC-77T/E cells. Cells were grown in serum-free K-SFM at different doses of Methyltrienolone (R1881), a synthetic androgen, for 4 days.
(§2) In this experiment, 2×10^4 cells per well of each line were grown in serum-free K-SFM with 0.1% BSA in the presence of 0, 0.1, 1.0, 10.0 and 100.0 nM for 4 days. K-SFM was supplemented with or without Methyltrienolone (R1881) (obtained from Perkin-Elmer, Waltham, Mass.), at concentrations of 0.1, 1, 10 and 100 nM, respectively. Cell proliferation was determined by MTT assay according to a procedure as generally described by Wells et al. (“Luteinizing hormone-releasing hormone agonist limits DU-145 prostate cancer growth by attenuating epidermal growth factor receptor signaling.” Clin. Cancer Res. 8: 1251-1257, 2002.).
(§3) The results from this experiment are illustrated in the chart of FIG. 4, with percent growth being determined by the number of cell counts being expressed as the mean value of triplicate observation. […] Further, the RC-77T/E cells were found responsive to 0.1 nM R1881, while RC-77N/E cells were only responsive at the higher dosage of 1.0 nM.
For orientation: Tetrazolium assays rely on reduction of a dye to a coloured formazan, in cell work by metabolically active cells.

Another experiment relates to RC-77N/E cells. As to the kind of experiment: Androgen sensitivity: cell proliferation by MTT assay, RC-77N/E cells. The note with it: 4 days. The class given is cell-based, human. As for the experimental part:
as §1, §2, §3

Setting [1] is: 1.0 nM R1881, serum-free K-SFM with 0.1% BSA.
Setting [2] is: 100.0 nM R1881, serum-free K-SFM with 0.1% BSA.

Each structure is given as a SMILES string.

Consider `C[C@]1(O)CC[C@H]2[C@@H]3CCC4=CC(=O)CCC4=C3C=C[C@@]21C` [R1881, Methyltrienolone], for which the “cell growth response to androgen stimulation” value in the experiment with RC-77T/E cells (0.1 nM R1881, serum-free K-SFM with 0.1% BSA) is given as “responsive”. For the same molecule, the cell growth result in the experiment with RC-77T/E cells (setting [1]) was “Significant stimulation in cell growth”; with RC-77T/E cells (setting [2]), “inhibition of cell growth”; in the experiment with RC-77N/E cells (setting [1]) it was “Significant stimulation in cell growth”; in the experiment on RC-77N/E cells (setting [2]), “inhibition of cell growth”.
